From patent publication US20210070779A1, “BORON-CONTAINING SMALL MOLECULES AS ANTI-INFLAMMATORY AGENTS” (Anacor Pharmaceuticals, Inc., priority 2013, published 2021)
Read-outs that look alike come from different tables or passages of the source.

Molecular target: Human PDE4 (PDE4B2 truncated catalytic domain) (Homo sapiens, UniProt Q07343)
Assay: Measurement of Phosphodiesterase 4 (PDE4) inhibition, zinc and barium precipitation method
Assay type: biochemical
Procedure: Measurement of Phosphodiesterase 4 (PDE4) Inhibition
Human PDE4 enzymatic activity was assayed using the zinc and barium precipitation method of Saldou, N. et al (1998: Cell Signal, vol 10, No. 6, pp 427-440). The assay was performed in 96-well v-bottom plates (BrandPlates, Wertheim, Germany). PDE4B2 truncated is the catalytic domain including the UCR2 and a portion of the UCR1 domain of PDE4B2 (23.4 mg/mL) from Proteros Biostructures. Final concentration of enzyme in the assay was 0.3 pM. Stocks of the tested compounds were prepared in 100% DMSO at a concentration of 40 mM. The 100-μL reaction volume consisted of 45 mM Tris-HCl, pH 7.5, 12.5 mM MgSO4, 0.3 μM […] (Sigma, St Louis, Mo.) supplemented with 0.2 μM ^3H-cAMP (Perkin Elmer, Waltham, Mass.). Compounds were pre-incubated with enzyme at room temperature for 20 min prior to initiating the reaction by adding substrate (cAMP supplemented with ^3H-cAMP). After incubation at 30° C. for 6 minutes, the reaction was stopped by the addition of 50 μL fresh made 21.5 mM ZnSO4.7H2O (Alfa Aesar, Ward Hill, Mass.) containing 5 mM AMP as a co-precipitant. Total AMP was precipitated by the addition of 50 μL 17.5 mM Ba(OH)2, prepared fresh daily in water. The precipitate was transferred and collected by filtration onto a 96-well GF/B plate (Millipore, Ireland). The plates were washed five times with cold wash solution (1 mM NaOH, 100 mM NaCl) and dried at 65° C. The bottoms of plates were sealed with clear tapes (Millipore Co-operation, Billerica, Mass.) and 40 μL of scintillation cocktail (Perkin Elmer Waltham, Mass.). The plates were top sealed and radioactivity was measured with an Elmer Packard TopCount scintillation counter.

[1] = PDE4B2 truncated, 0.3 pM enzyme, 3H-cAMP substrate, 30° C. 6 minutes, read-out: PDE4 IC50

Human PDE4 (PDE4B2 truncated catalytic domain), sequence (Q07343 212-659): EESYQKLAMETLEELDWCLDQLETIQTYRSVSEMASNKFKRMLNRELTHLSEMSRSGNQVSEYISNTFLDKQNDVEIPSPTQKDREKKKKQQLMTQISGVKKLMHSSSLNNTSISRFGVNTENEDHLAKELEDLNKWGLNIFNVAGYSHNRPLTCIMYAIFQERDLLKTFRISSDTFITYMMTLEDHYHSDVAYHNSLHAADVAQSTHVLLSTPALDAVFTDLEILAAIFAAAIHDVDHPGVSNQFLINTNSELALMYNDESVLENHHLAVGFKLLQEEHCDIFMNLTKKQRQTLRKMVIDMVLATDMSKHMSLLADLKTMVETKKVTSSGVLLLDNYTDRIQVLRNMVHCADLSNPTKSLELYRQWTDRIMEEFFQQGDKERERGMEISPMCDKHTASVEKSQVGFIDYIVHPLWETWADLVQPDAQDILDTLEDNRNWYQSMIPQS

IC50 [1] [µM]	SMILES	IC50 [µM]
1.77	N#Cc1ccc(Cc2ccc3c(c2)COB3O)cc1 [C, 4-((1-hydroxy-1,3-dihydrobenzo[c][1,2]oxaborol-5-yl)methyl)benzonitrile]	–
0.062	N#Cc1ccc([S+]([O-])c2ccc3c(c2)COB3O)cc1 (stereo not shown) [D, 4-(1-hydroxy-1,3-dihydrobenzo[c][1,2]oxaborol-5-ylsulfinyl)benzonitrile]	–
–	N#Cc1ccc(C(=O)c2ccc3c(c2)COB3O)cc1 [A, 4-(1-hydroxy-1,3-dihydrobenzo[c][1,2]oxaborole-5-carbonyl)benzonitrile]	0.504
1.73	N#Cc1ccc(C(O)c2ccc3c(c2)COB3O)cc1 (stereo not shown) [B, 4-(hydroxy(1-hydroxy-1,3-dihydrobenzo[c][1,2]oxaborol-5-yl)methyl)benzonitrile]	–
